The target of the experiment is G-protein coupled receptor 151 (Homo sapiens) (UniProt Q8TDV0). The experiment is described as follows: GPR151 activator potency, dose response, cell-based (AID 1508610). The settings on record: cell-based GPR151 activation reporter.

In general, EC50 refers to the concentration giving half of the maximal effect.

Each structure is given as a SMILES string. Calls of active or inactive are those of the source. The rule behind the calls is not given here.

Sequence of G-protein coupled receptor 151 (Homo sapiens) (Q8TDV0 whole entry, looked up): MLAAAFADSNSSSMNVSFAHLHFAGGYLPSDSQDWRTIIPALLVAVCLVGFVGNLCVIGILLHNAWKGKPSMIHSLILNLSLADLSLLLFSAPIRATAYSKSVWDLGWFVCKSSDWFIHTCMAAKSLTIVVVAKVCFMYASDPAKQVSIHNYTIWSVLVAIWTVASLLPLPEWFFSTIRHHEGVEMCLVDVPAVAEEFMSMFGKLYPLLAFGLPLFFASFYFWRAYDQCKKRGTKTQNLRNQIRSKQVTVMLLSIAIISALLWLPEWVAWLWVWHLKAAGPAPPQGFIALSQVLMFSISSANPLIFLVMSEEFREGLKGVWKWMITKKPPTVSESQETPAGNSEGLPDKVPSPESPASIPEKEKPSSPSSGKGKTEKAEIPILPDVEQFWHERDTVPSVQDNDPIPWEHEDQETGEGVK

With `CCOC(=O)c1ccc(NC(=O)CSc2cn(Cc3ccccc3Cl)c3ccccc23)cc1`, the EC50 is > 24.2 µM (inactive). As for `CCOCCCNC(=O)c1cc([N+](=O)[O-])ccc1Cl`, the figure is > 28 µM (inactive); as for `Nc1ncc(Br)cc1S(=O)(=O)N1CCN(C2CCCCC2)CC1`, > 28 µM (inactive).

With `CCN(CC(=O)NC1CCCCCC1)S(=O)(=O)c1ccc(C)cc1`, the EC50 is > 28 µM (inactive). As for `O=[N+]([O-])c1ccc(NS(=O)(=O)Cc2ccccc2)c([N+](=O)[O-])c1`, the figure is > 28 µM (inactive); as for `O=C(CSc1nc(-c2ccccc2)cs1)Nc1ccccc1`, > 28 µM (inactive); as for `C/C(=C\c1ccccc1)C(=O)Nc1ccccc1C(=O)O`, > 31.9 µM (inactive). As for `Cc1ccc(S(=O)(=O)N(CC(O)Cn2nc(C)cc2C)c2cccc([N+](=O)[O-])c2)cc1` (stereo unspecified), the figure is > 28 µM (inactive). As for `CC1CCCC(NCc2c(C(=O)O)n(Cc3ccccc3F)c3ccccc23)C1C` (stereo unspecified), the figure is > 28 µM (inactive); as for `COc1cccc(-c2nc(-c3ccccn3)no2)c1`, > 37.5 µM (inactive); as for `O=C(O)c1cccc(COc2ccc(CO)cc2Cl)c1`, > 28 µM (inactive). With `O=Cc1cccc(OCc2ccc(C(=O)O)cc2)c1`, the EC50 was > 28 µM (inactive). As for `COc1ccc(/C=N/NC(=O)COc2cccc(C)c2)cc1O`, the figure is > 28 µM (inactive); as for `COc1ccc(CCNC(=O)/C=C\C(=O)O)cc1OC`, > 28 µM (inactive).

With `CCC(=O)N1CCN(c2ccc(NC(=O)c3ccco3)cc2)CC1`, the EC50 is > 28 µM (inactive). As for `O=C(Nc1ccc(-c2cccc(F)c2)cc1)C1CCCN(C(=O)C2CCOCC2)C1` (stereo unspecified), the figure is > 28 µM (inactive); as for `CCOC(=O)N1CCN(C(=S)Nc2ccc(C)cc2)CC1`, > 28 µM (inactive); as for `COc1ccc(-c2ccc(C(N)=O)s2)cn1`, > 28.1 µM (inactive). With `O=C(Cn1c2c(c(-c3ccccc3Cl)cc1=O)CCC2)NC1CCCC1`, the EC50 is > 28 µM (inactive). As for `O=C(Nc1ncc([N+](=O)[O-])s1)c1cccs1`, the figure is > 28 µM (inactive).

Regarding `COc1cccc(OC)c1C(=O)Nc1ccc(Br)cn1`, the EC50 is > 28 µM (inactive). As for `O=C(Nc1ccc(NC(=O)c2cccc3c(Br)cccc23)cc1)c1ccco1`, the figure is > 24.4 µM (inactive). As for `COc1ccc(C(=O)Nc2cccc(C(=O)N3CCCC3)c2)cc1`, the figure is > 28 µM (inactive); as for `CCOC(=O)c1c(NC(=O)C(C)C)sc(C(C)=O)c1C`, “inactive”; as for `Cc1ccc(C(=O)Nc2ccc([N+](=O)[O-])cc2)c(Cl)c1`, > 28 µM (inactive). As for `O=C(Nc1nc(-c2ccc(I)cc2)cs1)c1ccc(Cl)s1`, the figure is > 24.9 µM (inactive). In the case of `c1cncc(-c2noc(C34CC5CC(CC(C5)C3)C4)n2)c1`, the EC50 was > 26.4 µM (inactive). As for `COc1ccc(N=C2SC(CC(=O)Nc3ccc(OC)cc3OC)C(=O)N2C)cc1` (stereo unspecified), the figure is 0.00244 µM; as for `COc1cccc(/C=N/NC(=O)C(C)Nc2ccc(C)cc2)c1O` (stereo unspecified), > 28 µM (inactive); as for `O=C1c2ccccc2C(Nc2ccc(Cl)cc2)N1c1cccnc1` (stereo unspecified), > 28 µM (inactive). As for `COC(=O)C(NC(=O)c1cccc(Cl)c1)(Nc1ccc(Cl)cn1)C(F)(F)F` (stereo unspecified), the figure is > 28 µM (inactive).

Take `C=CCOc1ccc(C(=O)N(Cc2nc(-c3ccc(OC)c(OC)c3)no2)C(C)C)cc1`: the EC50 is > 28 µM (inactive). As for `COc1cc([N+](=O)[O-])ccc1NC(=O)Nc1ccc(Cl)cc1F`, the figure is > 28 µM (inactive). As for `Cc1cc(C)c(C#N)c(Oc2cccc(N)c2)n1`, the figure is > 28 µM (inactive). As for `CCn1c(/C=C/C=C2\N(C)c3ccccc3C2(C)C)[n+](Cc2ccccc2)c2ccccc21`, the figure is 2.75 µM; as for `COc1ccc(S(=O)(=O)Nc2ccc(F)c(F)c2)cc1C`, > 28 µM (inactive); as for `CN1CCN(c2cc(-c3cn[nH]c3)ccc2NC(=O)Cc2cccc(Cl)c2)CC1`, 1.25 µM. In the case of `Cc1cccc(-n2ncc3c(Nc4ccc(F)cc4F)ncnc32)c1`, the EC50 was > 26.9 µM (inactive). As for `COc1ccc(NC(=O)CCC(=O)Oc2ccc(C)cc2)cc1`, the figure is > 28 µM (inactive); as for `CC(=O)OC(C(=O)NCc1ccco1)c1ccncc1` (stereo unspecified), > 28 µM (inactive); as for `O=S(=O)(O)c1ccc2nc(-c3ccccc3)[nH]c2c1`, > 28 µM (inactive). As for `CC(C)c1ccc2oc3nc(N)c(C(=O)O)cc3c(=O)c2c1`, the figure is > 28 µM (inactive); as for `CCOC(=O)C(=O)N1CCN(c2ccccc2)CC1`, > 28 µM (inactive).

Consider `COc1cccc(NC(=O)n2ncc3c(C)cccc32)c1`, for which the EC50 was > 28 µM (inactive). As for `CSc1cccc(CN2CCN(Cc3ccccc3F)C(CCO)C2)c1` (stereo unspecified), the figure is > 28 µM (inactive); as for `CCOC(=O)COc1ccc(/C=C2\C=C(c3ccc(Br)cc3)OC2=O)cc1OC`, > 23.6 µM (inactive); as for `COc1ccc(-c2ccc(/C=N/N3C(=O)C4C5C=CC(C6CC56)C4C3=O)o2)c([N+](=O)[O-])c1` (stereo unspecified), > 28 µM (inactive). As for `COc1cc(OC)cc(C(=O)NC2CCCCCCC2)c1`, the figure is > 39.8 µM (inactive); as for `COc1ccc(Br)cc1C(=O)NCC1COc2ccccc2O1` (stereo unspecified), > 28 µM (inactive); as for `O=C(O)CCC(NCC(O)Cn1c2ccccc2c2ccccc21)C(=O)O` (stereo unspecified), > 28.7 µM (inactive). Regarding `O=C(Nc1c2c(nn1-c1cccc(Cl)c1)CSC2)c1ccccc1Br`, the EC50 was > 20.9 µM (inactive).

In the case of `O=C(NCSc1ccncn1)c1ccccc1`, the EC50 is > 41.2 µM (inactive). Take `Cc1cc(Br)ccc1NC(=O)c1ccc(C#N)cc1F`: the EC50 is > 28 µM (inactive).

Regarding `O=C(Nc1ccc(Br)cc1)c1ccc(Br)c(S(=O)(=O)N2CCCCC2)c1`, the EC50 is > 20.9 µM (inactive). Take `CCC(C(=O)OC)n1cnc2scc(-c3cccc([N+](=O)[O-])c3)c2c1=O` (stereo unspecified): the EC50 is > 28 µM (inactive). As for `Oc1csc(Cc2nc(-c3ccccc3F)cs2)n1`, the figure is > 28.7 µM (inactive); as for `CCCCCCCCCCCCCC/C(C(=O)O)=C(\C)C(=O)O`, > 28 µM (inactive); as for `Cc1ccc(NC(=O)CCNc2c(N3CCCC3)c(=O)c2=O)cc1Cl`, > 28 µM (inactive). As for `Cc1ccc(NC(=O)C(CC(=O)O)C2CCCO2)cc1` (stereo unspecified), the figure is > 28 µM (inactive).

Regarding `Fc1ccc2nc(N3CCN(c4nc5ccccc5s4)CC3)sc2c1`, the EC50 was > 28 µM (inactive). As for `O=C(O)c1ccc(-n2cc(-c3ccc(Cl)cc3)cn2)cc1`, the figure is > 28 µM (inactive); as for `O=C(COc1ccc(Cl)cc1Cl)Nc1ncn[nH]1`, > 28 µM (inactive). As for `C1=Nc2ccccc2SC(c2cccnc2)=C1`, the figure is > 28.2 µM (inactive); as for `CC(=O)c1cccc(NC(=O)CC2S\C(=N/N=C/C=C/c3ccccc3)NC2=O)c1` (stereo unspecified), > 28 µM (inactive).

For the molecule `O=C(O)c1ccc(COc2cccc(CO)c2)cc1`, the EC50 was > 28 µM (inactive).

`CCN(CC)S(=O)(=O)c1ccc(C(=O)Nc2ccc(Cc3ccncc3)cc2)cc1`: the EC50 was > 25 µM (inactive). As for `COc1ccc(/C=C/C(=O)Nc2ccccc2F)cc1`, the figure is > 30.5 µM (inactive). Take `COc1ccc(C2C=C(c3ccc(Cl)cc3)Nc3nc(CCCO)nn32)cc1` (stereo unspecified): the EC50 entry is “inactive”. As for `CCOC(=O)c1sc(NC(=O)c2sccc2C)cc1C`, the figure is > 29 µM (inactive).

For the molecule `O=C(COC(=O)CCS(=O)(=O)c1ccccc1Cl)NC(=O)NCc1ccco1`, the EC50 was > 28.7 µM (inactive). As for `CCCCNc1c(N2CCCC(C(=O)OCC)C2)c(=O)c1=O` (stereo unspecified), the figure is > 28 µM (inactive); as for `COc1ccc(-c2ccc(C(=O)NCCO)s2)cc1`, > 27.9 µM (inactive); as for `COc1ccc(-c2nnc(/C=C/c3cccs3)o2)cc1`, > 27.6 µM (inactive). Take `C#CCN1CCc2cc(OC)c(OC)cc2C1C` (stereo unspecified): the EC50 was > 28 µM (inactive). As for `O=C(Nc1ccc(Br)cn1)c1ccc(N2CCCCC2)c([N+](=O)[O-])c1`, the figure is > 28 µM (inactive). `O=C(O)c1cc(N=Cc2ccco2)ccc1O`: the EC50 was > 28 µM (inactive).

As for `CCN(CC)S(=O)(=O)c1ccc(-c2csc(=Nc3ccccc3OC)n2CC)cc1`, the EC50 was > 17.3 µM (inactive). With `N#Cc1sc(NC(=O)c2ccc(F)c(F)c2)nc1Cl`, the EC50 was > 28 µM (inactive).

In the case of `CC(C)NC(=O)CSc1nnc(-c2cccnc2)n1CCc1ccccc1`, the EC50 is > 28 µM (inactive). As for `c1ccc(-c2ccc(-c3nc(-c4ccccn4)no3)cc2)cc1`, the figure is > 24.8 µM (inactive); as for `CCN(CC)S(=O)(=O)c1ccc(C(=O)Nc2nnc(C(C)C)s2)cc1`, > 23.9 µM (inactive).

Values taken from PubChem BioAssay AID1508610 (The Scripps Research Institute Molecular Screening Center, 2020).
